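The compound was tested at five concentrations on cells cultured in 96-well plates, with a 48-hour exposure period. Abbreviation: GI50, concentration required for 50% inhibition of growth. TGI denotes the concentration required for complete inhibition of growth.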
Experiments:
Test in all cases: growth of human tumour cells (NCI), 48 h
[1] = test system: LOX IMVI melanoma
[2] = test system: OVCAR-3 ovarian
[3] = test system: HCC-2998 colon
[4] = test system: K-562 leukemia
[5] = test system: RXF 393 renal
[6] = test system: IGROV1 ovarian
[7] = test system: HOP-92 NSCLC
[8] = test system: A498 renal
[9] = test system: NCI-H460 lung
[10] = test system: SW-620 colon
[11] = test system: RPMI-8226 leukemia
[12] = test system: NCI-H226 lung
[13] = test system: SK-MEL-5 melanoma
[14] = test system: HOP-62 NSCLC
[15] = test system: MALME-3M melanoma
[16] = test system: COLO 205 colon
[17] = test system: NCI-H23 lung
[18] = test system: HCT-15 colon
[19] = test system: OVCAR-4 ovarian
[20] = test system: HL-60(TB) leukemia
[21] = test system: SNB-75 CNS
[22] = test system: KM12 colon
[23] = test system: HCT-116 colon
[24] = test system: SR leukemia
[25] = test system: MCF7 breast
[26] = test system: HS 578T breast
[27] = test system: TK-10 renal
[28] = test system: HT29 colon
[29] = test system: T-47D breast
[30] = test system: CAKI-1 renal
[31] = test system: MDA-MB-231 breast
[32] = test system: SK-OV-3 ovarian
[33] = test system: PC-3 prostate
[34] = test system: U251 CNS
[35] = test system: 786-0 renal
[36] = test system: EKVX NSCLC
[37] = test system: SK-MEL-28 melanoma
[38] = test system: SK-MEL-2 melanoma
[39] = test system: ACHN renal
[40] = test system: NCI/ADR-RES ovarian
[41] = test system: SN12C renal
[42] = test system: SF-268 CNS
[43] = test system: MOLT-4 leukemia
[44] = test system: OVCAR-8 ovarian
[45] = test system: M14 melanoma
[46] = test system: UO-31 renal
[47] = test system: SNB-19 CNS
[48] = test system: SF-539 CNS
[49] = test system: BT-549 breast
[50] = test system: CCRF-CEM leukemia
[51] = test system: DU-145 prostate
[52] = test system: SF-295 CNS
[53] = test system: A549 NSCLC
[54] = test system: MDA-MB-435
[55] = test system: NCI-H522 lung
[56] = test system: OVCAR-5 ovarian
[57] = test system: UACC-62 melanoma
[58] = test system: UACC-257 melanoma

C=C1C(=O)O[C@H]2[C@H]1CC/C(Cn1cc(-c3ccc(N)cc3)nn1)=C\CC[C@@]1(C)O[C@@H]21
GI50 [1]: 1.51 µM | TGI [1]: 2.88 µM | GI50 [2]: 1.62 µM | TGI [2]: 3.99 µM | GI50 [3]: 3.49 µM | TGI [3]: 12 µM | GI50 [4]: 2.99 µM | TGI [4]: > 100 µM | GI50 [5]: 1.41 µM | TGI [5]: 3.02 µM | GI50 [6]: 2.96 µM | TGI [6]: 14.1 µM | GI50 [7]: 2.13 µM | TGI [7]: 5.33 µM | GI50 [8]: 10.4 µM | TGI [8]: 26.1 µM | GI50 [9]: 10.4 µM | TGI [9]: 29.7 µM | GI50 [10]: 2.16 µM | TGI [10]: 6.01 µM | GI50 [11]: 2.75 µM | TGI [11]: 10.4 µM | GI50 [12]: 3.34 µM | TGI [12]: 13.2 µM | GI50 [13]: 3.47 µM | TGI [13]: 12.7 µM | GI50 [14]: 10.2 µM | TGI [14]: 23.8 µM | GI50 [15]: 2.18 µM | TGI [15]: 5.42 µM | GI50 [16]: 1.79 µM | TGI [16]: 4.05 µM | GI50 [17]: 2.49 µM | TGI [17]: 7.72 µM | GI50 [18]: 1.42 µM | TGI [18]: 3.37 µM | GI50 [19]: 4.9 µM | TGI [19]: 18.6 µM | GI50 [20]: 2.23 µM | TGI [20]: 6.43 µM | GI50 [21]: 4.98 µM | TGI [21]: 22.4 µM | GI50 [22]: 11.4 µM | TGI [22]: 26.9 µM | GI50 [23]: 1.55 µM | TGI [23]: 4.22 µM | GI50 [24]: 0.702 µM | TGI [24]: > 100 µM | GI50 [25]: 2.41 µM | TGI [25]: 9.13 µM | GI50 [26]: 4.46 µM | TGI [26]: 27.4 µM | GI50 [27]: 2.25 µM | TGI [27]: 5.43 µM | GI50 [28]: 2.14 µM | TGI [28]: 5.47 µM | GI50 [29]: 2.23 µM | TGI [29]: 5.77 µM | GI50 [30]: 1.77 µM | TGI [30]: 7.03 µM | GI50 [31]: 3.45 µM | TGI [31]: 15.8 µM | GI50 [32]: 18.3 µM | TGI [32]: 34.4 µM | GI50 [33]: 10.1 µM | TGI [33]: 24.6 µM | GI50 [34]: 4.16 µM | TGI [34]: 16.5 µM | GI50 [35]: 1.98 µM | TGI [35]: 4.62 µM | GI50 [36]: 3.89 µM | TGI [36]: 18.5 µM | GI50 [37]: 2.71 µM | TGI [37]: 7.54 µM | GI50 [38]: 10.6 µM | TGI [38]: 28.9 µM | GI50 [39]: 2.65 µM | TGI [39]: 12 µM | GI50 [40]: 14.5 µM | TGI [40]: 38.2 µM | GI50 [41]: 3.48 µM | TGI [41]: 15.1 µM | GI50 [42]: 3.7 µM | TGI [42]: 16.3 µM | GI50 [43]: 2.87 µM | TGI [43]: 28.6 µM | GI50 [44]: 3.04 µM | TGI [44]: 12.4 µM | GI50 [45]: 2.97 µM | TGI [45]: 10.8 µM | GI50 [46]: 1.87 µM | TGI [46]: 10.1 µM | GI50 [47]: 12.7 µM | TGI [47]: 41.1 µM | GI50 [48]: 2.77 µM | TGI [48]: 8.75 µM | GI50 [49]: 3.05 µM | TGI [49]: 11.7 µM | GI50 [50]: 2 µM | TGI [50]: 20.3 µM | GI50 [51]: 3.65 µM | TGI [51]: 14.1 µM | GI50 [52]: 12.1 µM | TGI [52]: 26.5 µM | GI50 [53]: 11.9 µM | TGI [53]: 28.1 µM | GI50 [54]: 3.01 µM | TGI [54]: 11.5 µM | GI50 [55]: 1.37 µM | TGI [55]: 3.07 µM | GI50 [56]: 6.43 µM | TGI [56]: 22.9 µM

FC(F)(F)c1ccc(-c2nn3ncccc3c2-c2ccnc(Nc3ccc4c(c3)OCCO4)n2)cc1
GI50 [1]: 5.16 µM | TGI [1]: 15.3 µM | GI50 [2]: 11.6 µM | TGI [2]: > 25 µM | GI50 [3]: 6.56 µM | TGI [3]: > 25 µM | GI50 [4]: 8.79 µM | TGI [4]: > 25 µM | GI50 [5]: 4.4 µM | TGI [5]: > 17 µM | GI50 [6]: 5.19 µM | TGI [6]: > 25 µM | GI50 [7]: 2.02 µM | TGI [7]: 21.9 µM | GI50 [8]: 4.68 µM | TGI [8]: > 25 µM | GI50 [9]: 11.9 µM | TGI [9]: > 25 µM | GI50 [10]: > 25 µM | TGI [10]: > 25 µM | GI50 [11]: 5.97 µM | TGI [11]: > 20.4 µM | GI50 [12]: > 20.5 µM | TGI [12]: > 25 µM | GI50 [13]: 6.42 µM | TGI [13]: > 25 µM | GI50 [14]: > 25 µM | TGI [14]: > 25 µM | GI50 [15]: 7.29 µM | TGI [15]: > 25 µM | GI50 [16]: 16.6 µM | TGI [16]: > 25 µM | GI50 [17]: 14.7 µM | TGI [17]: > 25 µM | GI50 [18]: 8.18 µM | TGI [18]: > 25 µM | GI50 [19]: 10.2 µM | TGI [19]: > 25 µM | GI50 [20]: 7.16 µM | TGI [20]: > 21.8 µM | GI50 [21]: > 8.49 µM | TGI [21]: > 25 µM | GI50 [22]: 10.7 µM | TGI [22]: > 25 µM | GI50 [23]: 8.15 µM | TGI [23]: > 25 µM | GI50 [24]: > 25 µM | TGI [24]: > 25 µM | GI50 [25]: 8.04 µM | TGI [25]: > 25 µM | GI50 [26]: 10.9 µM | TGI [26]: > 25 µM | GI50 [27]: 10.1 µM | TGI [27]: > 25 µM | GI50 [28]: 6.03 µM | TGI [28]: > 25 µM | GI50 [29]: 4.78 µM | TGI [29]: > 25 µM | GI50 [30]: 4.86 µM | TGI [30]: > 19.2 µM | GI50 [31]: 3.49 µM | TGI [31]: > 21.9 µM | GI50 [32]: 9.08 µM | TGI [32]: > 25 µM | GI50 [33]: 7.32 µM | TGI [33]: > 25 µM | GI50 [34]: 14.1 µM | TGI [34]: > 25 µM | GI50 [35]: 17.3 µM | TGI [35]: > 25 µM | GI50 [36]: 4.02 µM | TGI [36]: > 25 µM | GI50 [37]: > 25 µM | TGI [37]: > 25 µM | GI50 [38]: 11.6 µM | TGI [38]: > 25 µM | GI50 [57]: 10 µM | TGI [57]: > 25 µM | GI50 [39]: 14.7 µM | TGI [39]: > 25 µM | GI50 [40]: 9.6 µM | TGI [40]: > 25 µM | GI50 [41]: 9.77 µM | TGI [41]: > 25 µM | GI50 [42]: > 21.3 µM | TGI [42]: > 25 µM | GI50 [43]: 6.11 µM | TGI [43]: > 23.3 µM | GI50 [44]: 13.2 µM | TGI [44]: > 25 µM | GI50 [45]: 8.92 µM | TGI [45]: > 25 µM | GI50 [46]: 3 µM | TGI [46]: > 21.9 µM | GI50 [47]: > 25 µM | TGI [47]: > 25 µM | GI50 [58]: 7.23 µM | TGI [58]: > 25 µM | GI50 [48]: > 19.7 µM | TGI [48]: > 25 µM | GI50 [49]: 17.3 µM | TGI [49]: > 25 µM | GI50 [50]: 10.8 µM | TGI [50]: > 25 µM | GI50 [51]: 16.4 µM | TGI [51]: > 25 µM | GI50 [52]: 6.91 µM | TGI [52]: > 25 µM | GI50 [53]: 21.4 µM | TGI [53]: > 25 µM | GI50 [54]: 10.7 µM | TGI [54]: > 25 µM | GI50 [55]: 8.79 µM | TGI [55]: > 25 µM | GI50 [56]: 7.11 µM | TGI [56]: > 23.2 µM

— PubChem BioAssay (NCI)
